The supplement of paper PMC4862054

What was measured:
Conditions in all cases: incubation time: 72 h
BT-549 [1] = experiment: drug sensitivity score (DSS), CellTiter-Glo (DSS (AUC-based score)); higher = stronger drug effect (viability inhibition or cytotoxicity); extreme values may be limits of the assay
Procedure, shortened: (§1)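 The area under the fitted dose-response curve was used to calculate the drug sensitivity score. Cells from breast cancer lines were incubated for 72 h in 384-well plates with compound at 5 concentrations spaced 10-fold over a 10,000-fold range specific to each compound. Plates were read for CellTox Green and then CellTiter-Glo, and normalised to 0.1 % DMSO and a positive kill control.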

CAL-120 [2] = experiment: as above
Procedure, shortened: as §1

CAL-148 [3] = experiment: as above
Procedure, shortened: as §1

DU-4475 [4] = experiment: as above
Procedure, shortened: as §1

HCC1143 [5] = experiment: as above
Procedure, shortened: as §1

Hs578T = experiment: as above
Procedure, shortened: as §1

MCF-10A [6] = experiment: as above
Procedure, shortened: as §1

MDA-MB-231 [7] = experiment: as above
Procedure, shortened: as §1

MDA-MB-436 [8] = experiment: as above
Procedure, shortened: as §1

MFM-223 [9] = experiment: as above
Procedure, shortened: as §1

SK-BR-3 = experiment: as above
Procedure, shortened: as §1

BT-474 = experiment: drug sensitivity score (DSS), CellTox Green (DSS (AUC-based score)); higher = stronger drug effect (viability inhibition or cytotoxicity); extreme values may be limits of the assay
Procedure, shortened: as §1

BT-549 [10] = experiment: as above
Procedure, shortened: as §1

CAL-120 [11] = experiment: as above
Procedure, shortened: as §1

CAL-148 [12] = experiment: as above
Procedure, shortened: as §1

CAL-51 = experiment: as above
Procedure, shortened: as §1

CAL-85-1 = experiment: as above
Procedure, shortened: as §1

DU-4475 [13] = experiment: as above
Procedure, shortened: as §1

HCC1143 [14] = experiment: as above
Procedure, shortened: as §1

HCC1599 = experiment: as above
Procedure, shortened: as §1

HDQ-P1 = experiment: as above
Procedure, shortened: as §1

MCF-10A [15] = experiment: as above
Procedure, shortened: as §1

MDA-MB-231 [16] = experiment: as above
Procedure, shortened: as §1

MDA-MB-436 [17] = experiment: as above
Procedure, shortened: as §1

MDA-MB-453 = experiment: as above
Procedure, shortened: as §1

MDA-MB-468 = experiment: as above
Procedure, shortened: as §1

MFM-223 [18] = experiment: as above
Procedure, shortened: as §1

Row | Structure (SMILES) | drug sensitivity score (BT-549 [1]) | drug sensitivity score (CAL-120 [2]) | drug sensitivity score (CAL-148 [3]) | drug sensitivity score (DU-4475 [4]) | drug sensitivity score (HCC1143 [5]) | drug sensitivity score (Hs578T) | drug sensitivity score (MCF-10A [6]) | drug sensitivity score (MDA-MB-231 [7]) | drug sensitivity score (MDA-MB-436 [8]) | drug sensitivity score (MFM-223 [9]) | drug sensitivity score (SK-BR-3) | drug sensitivity score (BT-474) | drug sensitivity score (BT-549 [10]) | drug sensitivity score (CAL-120 [11]) | drug sensitivity score (CAL-148 [12]) | drug sensitivity score (CAL-51) | drug sensitivity score (CAL-85-1) | drug sensitivity score (DU-4475 [13]) | drug sensitivity score (HCC1143 [14]) | drug sensitivity score (HCC1599) | drug sensitivity score (HDQ-P1) | drug sensitivity score (MCF-10A [15]) | drug sensitivity score (MDA-MB-231 [16]) | drug sensitivity score (MDA-MB-436 [17]) | drug sensitivity score (MDA-MB-453) | drug sensitivity score (MDA-MB-468) | drug sensitivity score (MFM-223 [18])
1 | Cc1cc(C(C)Nc2ccccc2)c2nc(N3CCOCC3)cc(=O)n2c1 (stereo not drawn) [TGX-221] | 2.27 | 0.0447 | 0 | 0 | 0 | 0 | 0 | 0 | 0 | 0 | 0 | 0 | 0 | 0 | 0 | 0 | 0 | 0 | 0 | 0 | 11.9 | 1.09 | 0.585 | 0 | 0 | 0 | 0
2 | C[C@@H]1CCN(C(=O)CC#N)C[C@@H]1N(C)c1ncnc2[nH]ccc12 [Tofacitinib] | 0 | 0 | 0 | 0 | 0 | 0 | 0 | 0 | 0 | 0 | 0 | 0 | 0 | 0 | 0 | 0 | 0 | 0 | 0 | 0 | 0 | 0 | 0 | 0 | 0 | 0 | 0
3 | CCCC(CCC)C(=O)O [Valproic acid] | 0 | 0 | 0 | 0 | 0 | 0 | 0 | 0 | 0 | 0 | 0 | 0 | 0 | 0 | 0 | 0 | 0 | 0 | 0 | 0 | 0 | 0 | 0 | 0 | 0 | 0 | 0
4 | FC(F)c1nc2ccccc2n1-c1nc(N2CCOCC2)nc(N2CCOCC2)n1 [ZSTK474] | 13.1 | 7.92 | 6.71 | 1.87 | 6.07 | 11.3 | 10.9 | 7.99 | 9.24 | 9.3 | 15.3 | 0.64 | 0 | 0 | 0 | 0 | 0 | 0 | 0 | 0 | 0 | 0 | 0 | 0 | 0 | 0 | 3.44
